Paper PMC11578313, “Miniaturized Modular Click Chemistry‐enabled Rapid Discovery of Unique SARS‐CoV‐2 M^pro Inhibitors With Robust Potency and Drug‐like Profile” (Advanced Science, 2024)

Key:
HCoV‐OC43 = experiment: microbe, parasite or virus in culture; type: cell-based; settings: Betacoronavirus 1, MRC5, read-out: EC50 ± SD, HCoV‐OC43
[1] = system: SARS‐CoV‐2 Gamma (hCoV‐19/Korea/KDCA95637/2021); experiment: microbe, parasite or virus in culture; type: cell-based; settings: Severe acute respiratory syndrome coronavirus 2; Calu‐3; read-out: EC50 ± SD, SARS‐CoV‐2 Gamma
SARS‐CoV‐2 viral RNA = type: cell-based
in vivo = settings: ICR, mouse, po
Kunming mice = experiment: Subacute toxicity experiment; type: in vivo
Description: The acute and subacute toxicity of C5N17B were assessed in Kunming mice. In the acute toxicity study, one group received an oral dose of 500 mg kg^−1 of C5N17B. In the subacute toxicity study, a different group was administered a lower dose of 50 mg kg^−1 of C5N17B. Each experimental set included a control group that received only the vehicle treatment.
Kunming mice were group housed both during acclimation and the study period. The animal room environment was controlled to maintain specific target conditions, including a temperature range of 20 °C to 25 °C, relative humidity levels between 40% and 70%, and an alternating schedule of artificial light for 12 h followed by 12 h of darkness. The age of Kunming mice in the acute/subacute toxicity study was 3–4 weeks, and the body weights were ≈20 g. All animal experiments related to this study were approved by the ethics committee of Cheeloo College of Medicine (approval No. 230014), Shandong University (Jinan, China) Procedures performed in the studies were guided by the ethical standards of the institution.
A group of Kunming mice (comprising three males and three females) was supplied by the Animal Experimental Center of Shandong University. The mice underwent a 12 h fasting period, followed by oral administration of a suspension containing C5N17B in 0.5% CMC‐Na and 3% DMSO at the concentration of 100 mg mL^−1 to achieve an acute toxicity dose of 500 mg kg^−1. In the subacute toxicity experiment, the test group received 50 mg kg^−1 of C5N17B orally, with another group serving as a control. The experimental group and control group each consist of six mice, with an equal distribution of three males and three females.

[2] = 10 mg/kg, p.o. in combination with ritonavir, p.o. 10 mg kg^−1 with 20 mg kg^−1 ritonavir, ICR mice, n = 3
[3] = male, 10 mg/kg, Mean, C5N17B+Ritonavir, PO 10 mg/kg, mean of 3 mice
[4] = male, 10 mg/kg, Plasma concentration (Calculated Concentration), C5N17B+Ritonavir, PO 10 mg/kg, mouse plasma, individual mice
[5] = male, 10 mg/kg, Plasma concentration, Mean, C5N17B+Ritonavir, PO 10 mg/kg, mean of mice 1#-3#

With `Cc1cncc(C(=O)N2C[C@H]3CC[C@@H](C2)N3[C@H](c2cccc(F)c2)c2cn(CCc3ccsc3)nn2)c1` [Compound C5N17B] the EC50 (HCoV‐OC43) was 2710 ± 510 nM, the EC50 [1] was 260 ± 13 nM and the “reduction in viral RNA” value (SARS‐CoV‐2 viral RNA) was “exceeded 3 log orders”. The “decrease in viral RNA copy number compared to 10.0 µM nirmatrelvir” value (SARS‐CoV‐2 viral RNA; 0.041 µM) was 20 fold, the Cmax (in vivo; [2]) was 2300 ± 162 ng/mL and the MRT (in vivo; 10 mg/kg, MRT0‐t, p.o. in combination with ritonavir, p.o. 10 mg kg^−1 with 20 mg kg^−1 ritonavir, ICR mice, n = 3) was 3.15 ± 0.456 h. For the same compound, the MRT (in vivo; 10 mg/kg, MRT0‐∞, p.o. in combination with ritonavir, p.o. 10 mg kg^−1 with 20 mg kg^−1 ritonavir, ICR mice, n = 3) was 4.88 ± 2.7 h, the Tmax (in vivo; [2]) was 2.08 ± 1.88 h and the half-life (in vivo; 10 mg/kg, t1/2, p.o. in combination with ritonavir, p.o. 10 mg kg^−1 with 20 mg kg^−1 ritonavir, ICR mice, n = 3) was 188 ± 124 min. The AUC (in vivo; AUC0‐t, p.o. in combination with ritonavir, p.o. 10 mg kg^−1 with 20 mg kg^−1 ritonavir, ICR mice, n = 3) was 11500 ng·h/mL, the AUC(0-t) (in vivo; male, 10 mg/kg, AUC0-t, C5N17B+Ritonavir, PO 10 mg/kg, individual mice 1#-3#) was 9690 ng·h/mL and the AUC(0-t) (in vivo; male, 10 mg/kg, AUC0-t, Mean, C5N17B+Ritonavir, PO 10 mg/kg, mean of 3 mice) was 11500 ng·h/mL. For the same compound, the AUC(0-inf) (in vivo; male, 10 mg/kg, AUC0-∞, C5N17B+Ritonavir, PO 10 mg/kg, individual mice 1#-3#) was 10400 ng·h/mL, the AUC(0-inf) (in vivo; male, 10 mg/kg, AUC0-∞, Mean, C5N17B+Ritonavir, PO 10 mg/kg, mean of 3 mice) was 14200 ng·h/mL and the AUC(0-inf) (in vivo; male, 10 mg/kg, AUCINF_obs, C5N17B+Ritonavir, po 10 mg/kg, non-compartmental output, individual mice) was 10400 ng·h/mL. It also gave an AUC(0-inf) (in vivo; male, 10 mg/kg, AUCINF_pred, C5N17B+Ritonavir, po 10 mg/kg, based on predicted Clast, individual mice) of 10800 ng·h/mL, an AUC (in vivo; male, 10 mg/kg, AUCall, C5N17B+Ritonavir, po 10 mg/kg, non-compartmental output, individual mice) of 9690 ng·h/mL and an AUC(0-t) (in vivo; male, 10 mg/kg, AUClast, C5N17B+Ritonavir, po 10 mg/kg, non-compartmental output, individual mice) of 9690 ng·h/mL. It also gave a CL/F (in vivo; male, 10 mg/kg, Cl_F_obs, C5N17B+Ritonavir, po 10 mg/kg, non-compartmental output, individual mice) of 16 mL/min/kg, a Cmax (in vivo; male, 10 mg/kg, C5N17B+Ritonavir, PO 10 mg/kg, individual mice 1#-3#) of 2270 ng/mL and a Cmax (in vivo; male, 10 mg/kg, C5N17B+Ritonavir, po 10 mg/kg, non-compartmental output, individual mice) of 2270 ng/mL. It also gave a Cmax (in vivo; [3]) of 2300 ng/mL, an MRT last (in vivo; male, 10 mg/kg, MRT0-t, C5N17B+Ritonavir, PO 10 mg/kg, individual mice 1#-3#) of 2.62 h and an MRT last (in vivo; male, 10 mg/kg, MRT0-t, Mean, C5N17B+Ritonavir, PO 10 mg/kg, mean of 3 mice) of 3.15 h. It also gave an MRT inf (in vivo; male, 10 mg/kg, MRT0-∞, Mean, C5N17B+Ritonavir, PO 10 mg/kg, mean of 3 mice) of 4.88 h, an MRT last (in vivo; male, 10 mg/kg, MRTlast, C5N17B+Ritonavir, po 10 mg/kg, non-compartmental output, individual mice) of 2.62 h and a concentration at 5 min (in vivo; male, 10 mg/kg, Plasma concentration (Calculated Concentration), C5N17B+Ritonavir, PO 10 mg/kg, mouse plasma, 5 min (5min), individual mice) of 680 ng/mL. For the same compound, the concentration at 0.5 h (in vivo; male, 10 mg/kg, Plasma concentration (Calculated Concentration), C5N17B+Ritonavir, PO 10 mg/kg, mouse plasma, 0.5 h (30min), individual mice) was 2280 ng/mL, the concentration at 1 h (in vivo; [4]) was 2210 ng/mL and the concentration at 2 h (in vivo; [4]) was 1910 ng/mL. For the same compound, the concentration at 4 h (in vivo; [4]) was 1180 ng/mL, the concentration at 5 min (in vivo; male, 10 mg/kg, Plasma concentration, Mean, C5N17B+Ritonavir, PO 10 mg/kg, 5 min, mean of mice 1#-3#) was 660 ng/mL and the concentration at 0.5 h (in vivo; male, 10 mg/kg, Plasma concentration, Mean, C5N17B+Ritonavir, PO 10 mg/kg, 0.50 h, mean of mice 1#-3#) was 1740 ng/mL. It also gave a concentration at 1 h (in vivo; [5]) of 1970 ng/mL, a concentration at 2 h (in vivo; [5]) of 2110 ng/mL and a concentration at 4 h (in vivo; [5]) of 1750 ng/mL. The concentration at 6 h (in vivo; male, 10 mg/kg, Plasma concentration, Mean, C5N17B+Ritonavir, PO 10 mg/kg, 6 h, mean of mice 1#-3#) was 1040 ng/mL, the concentration at 8 h (in vivo; male, 10 mg/kg, Plasma concentration, Mean, C5N17B+Ritonavir, PO 10 mg/kg, 8 h, mean (1# BQL)) was 490 ng/mL and the half-life (in vivo; male, 10 mg/kg, T1/2, Mean, C5N17B+Ritonavir, PO 10 mg/kg, mean of 3 mice) was 188 min. For the same compound, the Tmax (in vivo; [3]) was 2.08 h, the “body weight compared to the control group, subacute toxicity” value (Kunming mice; 50 mg kg^−1, 15 days) was “no significant changes in body weight” and the “examination of vital organs, hematoxylin and eosin‐stained slices” value (Kunming mice; heart, liver, spleen, lung, kidney, subacute toxicity study) was “no significant pathological abnormalities”. The “fatalities or abnormal behavior, subacute toxicity” value (Kunming mice; oral 50 mg kg^−1, Kunming mice) was “No fatalities or abnormal behavior”.
